Results published in publication PMC3914206.

How the values were obtained:
Assay type in all cases: binding
Settings in all cases: Compound Concentration 10 µM
panel of 442 kinases [1] = biological target: T1, panel of 442 kinases (Homo sapiens, UniProt P08581, M1250T)
T1 construct: purchased KINOMEscan
From the text: (§1) We assessed the selectivity of members of this scaffold using the KINOMEscan methodology across a near comprehensive panel of 442 kinases [[18,27]].

panel of 442 kinases [2] = biological target: T2, panel of 442 kinases (Homo sapiens, UniProt O14936)
T2 construct: purchased KINOMEscan
T2 sequence (O14936 1-926): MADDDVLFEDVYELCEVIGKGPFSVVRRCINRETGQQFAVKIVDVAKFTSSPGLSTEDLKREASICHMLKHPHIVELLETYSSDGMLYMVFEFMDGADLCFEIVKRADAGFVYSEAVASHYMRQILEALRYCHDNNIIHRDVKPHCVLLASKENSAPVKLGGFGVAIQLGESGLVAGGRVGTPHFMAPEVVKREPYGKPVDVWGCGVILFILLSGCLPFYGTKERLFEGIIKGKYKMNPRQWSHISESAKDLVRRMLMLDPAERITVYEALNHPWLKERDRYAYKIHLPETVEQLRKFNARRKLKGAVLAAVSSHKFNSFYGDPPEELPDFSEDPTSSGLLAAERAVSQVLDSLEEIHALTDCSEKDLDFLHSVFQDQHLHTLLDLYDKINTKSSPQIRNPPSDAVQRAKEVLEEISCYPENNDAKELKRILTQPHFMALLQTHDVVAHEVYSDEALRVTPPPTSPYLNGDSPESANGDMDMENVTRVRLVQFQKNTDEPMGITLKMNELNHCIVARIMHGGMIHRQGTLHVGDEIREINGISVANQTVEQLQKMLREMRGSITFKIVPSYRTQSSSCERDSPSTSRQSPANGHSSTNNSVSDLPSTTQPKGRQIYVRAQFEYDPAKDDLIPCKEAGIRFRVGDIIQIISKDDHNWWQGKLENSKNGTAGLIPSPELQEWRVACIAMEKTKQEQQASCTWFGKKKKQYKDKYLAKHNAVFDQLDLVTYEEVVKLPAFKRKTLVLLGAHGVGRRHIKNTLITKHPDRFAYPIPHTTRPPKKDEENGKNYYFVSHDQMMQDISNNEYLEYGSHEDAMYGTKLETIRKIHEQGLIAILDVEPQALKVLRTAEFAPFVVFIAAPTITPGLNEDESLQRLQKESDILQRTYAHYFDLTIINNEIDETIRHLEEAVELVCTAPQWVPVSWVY
From the text: as §1

panel of 442 kinases [3] = biological target: T3, panel of 442 kinases (Homo sapiens, UniProt P45984)
T3 construct: purchased KINOMEscan
From the text: as §1

T1 sequence (P08581 25-1390 M1250T): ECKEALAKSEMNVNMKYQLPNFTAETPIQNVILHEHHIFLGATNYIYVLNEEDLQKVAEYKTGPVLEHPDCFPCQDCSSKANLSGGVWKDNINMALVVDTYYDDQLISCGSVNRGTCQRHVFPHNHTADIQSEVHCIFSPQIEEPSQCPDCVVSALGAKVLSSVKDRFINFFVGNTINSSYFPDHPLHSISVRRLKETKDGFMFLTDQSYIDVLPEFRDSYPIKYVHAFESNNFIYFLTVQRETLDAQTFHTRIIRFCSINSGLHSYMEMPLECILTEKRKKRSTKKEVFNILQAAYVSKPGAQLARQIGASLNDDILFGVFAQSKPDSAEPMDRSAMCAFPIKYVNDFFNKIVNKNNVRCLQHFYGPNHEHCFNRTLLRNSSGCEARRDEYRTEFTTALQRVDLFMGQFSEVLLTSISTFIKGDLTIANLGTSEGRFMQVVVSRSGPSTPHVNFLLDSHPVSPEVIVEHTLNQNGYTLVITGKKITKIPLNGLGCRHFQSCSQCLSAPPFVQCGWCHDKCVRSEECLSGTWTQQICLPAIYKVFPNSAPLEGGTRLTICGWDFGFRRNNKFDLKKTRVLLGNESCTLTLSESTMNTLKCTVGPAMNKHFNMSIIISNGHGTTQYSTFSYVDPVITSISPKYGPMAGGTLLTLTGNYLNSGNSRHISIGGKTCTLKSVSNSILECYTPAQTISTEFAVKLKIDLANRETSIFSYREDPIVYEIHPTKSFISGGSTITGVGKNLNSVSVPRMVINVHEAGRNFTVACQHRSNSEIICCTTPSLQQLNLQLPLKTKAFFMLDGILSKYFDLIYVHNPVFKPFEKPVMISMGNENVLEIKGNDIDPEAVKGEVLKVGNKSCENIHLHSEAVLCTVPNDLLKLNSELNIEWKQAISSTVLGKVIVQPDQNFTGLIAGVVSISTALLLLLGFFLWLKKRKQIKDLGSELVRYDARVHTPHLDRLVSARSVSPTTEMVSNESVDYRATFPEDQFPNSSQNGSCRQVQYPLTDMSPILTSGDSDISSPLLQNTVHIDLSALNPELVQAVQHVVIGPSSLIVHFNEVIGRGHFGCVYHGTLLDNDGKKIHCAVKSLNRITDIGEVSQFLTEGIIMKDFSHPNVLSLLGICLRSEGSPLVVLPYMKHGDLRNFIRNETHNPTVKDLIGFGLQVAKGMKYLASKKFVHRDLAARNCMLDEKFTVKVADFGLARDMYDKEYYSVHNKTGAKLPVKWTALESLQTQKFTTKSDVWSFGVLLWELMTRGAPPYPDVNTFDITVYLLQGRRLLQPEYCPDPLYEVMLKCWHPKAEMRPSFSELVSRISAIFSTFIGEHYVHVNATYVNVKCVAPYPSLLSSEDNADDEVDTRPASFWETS
T3 sequence (P45984 whole entry): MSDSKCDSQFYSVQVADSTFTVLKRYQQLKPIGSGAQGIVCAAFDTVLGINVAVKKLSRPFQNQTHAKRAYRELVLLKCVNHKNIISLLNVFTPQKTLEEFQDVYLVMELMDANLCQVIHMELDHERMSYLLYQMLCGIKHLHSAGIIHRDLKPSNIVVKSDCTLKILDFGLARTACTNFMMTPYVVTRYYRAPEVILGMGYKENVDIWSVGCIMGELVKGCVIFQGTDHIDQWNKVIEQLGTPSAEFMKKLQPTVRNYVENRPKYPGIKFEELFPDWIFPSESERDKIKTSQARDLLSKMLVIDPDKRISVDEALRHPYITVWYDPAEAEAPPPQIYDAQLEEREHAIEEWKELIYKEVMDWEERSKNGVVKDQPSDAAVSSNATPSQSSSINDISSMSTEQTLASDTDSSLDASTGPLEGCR

SMILES	KINOMEscan: MET(M1250T) (panel of 442 kinases [1])	KINOMEscan: CASK (panel of 442 kinases [2])	KINOMEscan: JNK2 (panel of 442 kinases [3])
CCOc1cc(C(=O)N2CCC(N3CCN(C)CC3)CC2)ccc1Nc1ncc2c(n1)N(C1CCCC1)c1ccccc1C(=O)N2C [Compound 26]	100	98	63
COc1cc(C(=O)N2CCC(N3CCN(C)CC3)CC2)ccc1Nc1ncc2c(n1)N1CCc3cccc(c31)C(=O)N2C [Compound 24]	88	100	42
COc1cc(C(=O)N2CCC(N3CCN(C)CC3)CC2)ccc1Nc1ncc2c(n1)N(C)c1ccccc1C(=O)N2C [15 (LRRK2-IN-1)]	96	85	94
COc1cc(C(=O)N2CCC(N3CCN(C)CC3)CC2)ccc1Nc1ncc2c(n1)N(C1CCCC1)c1ccccc1C(=O)N2C [Compound 25, 11-cyclopentyl-2-((2-methoxy-4-(4-(4-methylpiperazin-1-yl)piperidine-1-carbonyl)phenyl)amino)-5-methyl-5H-benzo[e]pyrimido[5,4-b][1,4]diazepin-6(11H)-one]	95	100	44
